Results from paper PMC8924238, “Mapping the sequence specificity of heterotypic amyloid interactions enables the identification of aggregation modifiers” (Nature Communications, 2022).
Entries after “also recorded” stand apart in the source; their conditions may differ. Residues, ends and D or L forms follow the SMILES beside them.

What was measured:
[1] = molecular target: T1, recombinant full-length tau (tau^2N4R) (Homo sapiens, UniProt P10636); assay: Th-T kinetics of heparin-induced aggregation of recombinant full-length tau; format: biochemical; details: Fig. 8d
T1 construct: Recombinant full-length tau (tau^2N4R) was produced following previous established protocols; made in house
T1 sequence (P10636 1-441 isoform P10636-8): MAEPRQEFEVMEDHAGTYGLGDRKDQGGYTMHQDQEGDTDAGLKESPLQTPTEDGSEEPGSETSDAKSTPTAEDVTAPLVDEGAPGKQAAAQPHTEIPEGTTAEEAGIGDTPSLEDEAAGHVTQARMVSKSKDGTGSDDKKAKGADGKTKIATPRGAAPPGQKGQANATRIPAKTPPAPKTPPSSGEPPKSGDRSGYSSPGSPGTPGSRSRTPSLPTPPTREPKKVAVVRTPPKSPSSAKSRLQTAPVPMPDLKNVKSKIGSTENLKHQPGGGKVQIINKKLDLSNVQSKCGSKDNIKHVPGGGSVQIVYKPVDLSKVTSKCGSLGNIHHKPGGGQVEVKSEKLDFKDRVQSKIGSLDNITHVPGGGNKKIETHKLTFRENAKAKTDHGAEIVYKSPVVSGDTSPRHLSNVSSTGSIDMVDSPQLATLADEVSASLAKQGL
Protocol: Recombinant full-length tau (tau^2N4R) was produced following previous established protocols. Lyophilised protein aliquots were freshly dissolved in 10 mM HEPES pH 7.4 supplemented with 100 mM NaCl at a final concentration of 10 μM. After filtration, using […] PVDF filters, the protein solution was spiked with 5 μ μM of heparin (Sigma) and aggregation was monitored by adding 25 μM of Th-T in half-area black 96-well microplates (Corning, USA). Fluorescence was measured in triplicates, using a FluoStar Omega plate reader (BMG Labtech, Germany) at 37 °C, equipped with an excitation filter at 440 nm and emission filter at 490 nm. To generate seeds, endpoint amyloid fibrils were sonicated for 15 min (30 s on, 30 s off) at 10 °C, using a Bioruptor Pico sonication device (Diagenode).

[2] = test system: HEK293 Tau^RD-P301S-CFP/YFP expressing biosensor cells; assay: Seeding inhibition in FRET tau biosensor cells, AD brain extracts; format: cell-based, human; details: CAP1 500 nM pre-treatment, extracts diluted 500x, three patients in duplicates, n = 6
Source text: Ethical approval to access and work on the human tissue samples was given by the UZ Leuven ethical committee (Leuven/Belgium; File-No. S63759). An informed consent for autopsy and scientific use of autopsy tissue with clinical information was granted from all subjects involved. Following approval, brain tissue from autopsy cases was received from UZ/KU Leuven Biobank. Sarkosyl-insoluble material was extracted from cortex tissue of three individual patients with Alzheimer’s disease (designated here as A1–A3, Supplementary Table 3), as shown previously. Briefly, the tissue was homogenised with a FastPrep (MP Biomedicals) in 10 volumes (w/v) cold buffer consisting of 10 mM Tris-HCl pH 7.4, 0.8 M NaCl, 1 mM EGTA and 10% sucrose, followed by centrifugation at 20,000 × g for 20 min at 4 °C. Universal Nuclease (Pierce) was added to the supernatant, followed by a 30 min incubation at room temperature. The sample was then brought to 1% Sarkosyl (Sigma) and incubated for 1 h at room temperature while shaking (400 rpm), followed by centrifugation at 350,000 × g for 1 h at 4 °C. The pellet was washed once, resuspended in 50 mM Tris-HCl pH 7.4 (175 mg of starting material per 100 µl) and stored at −80 °C. […]

ATTO633-monomeric tau = molecular target: T2, ATTO633-monomeric tau (Homo sapiens, UniProt P10636); assay: Microscale thermophoresis, monomeric rTau; format: binding; details: MST, 25 nM ATTO633-monomeric tau, CAP1 titrated from 50 μM; n = 3
T2 construct: heparin-induced aggregation of recombinant full-length tau (rTau); made in house
T2 sequence (P10636 1-441 isoform P10636-8): as above
Protocol: MST measurements were performed to calculate binding affinities. Monomeric tau was labelled using amine reactive ATTO633 (ATTO633-NHS), following the manufacturer guidelines. Labelled tau aggregates were prepared using a 1:9 analogy of labelled to unlabelled monomeric tau, following the same aggregation protocol described for the unlabelled protein. 25 nM of ATTO633-monomeric tau or ATTO633-tau seeds were mixed against the CAP1 inhibitor, which was dissolved and titrated down starting from 50 μM, in tau buffer (HEPES 10 mM, 100 mM NaCl). Measurements were recorded on a Monolith NT automated instrument (NanoTemper Technologies GmbH, Germany) with a red-laser channel at 5% LED excitation power and medium MST power at ambient conditions. Affinity constants and experimental data fitting was performed using the NanoTemper analysis software (v2.2.4) and results were depicted as differentials between the bound and unbound state after baseline subtraction (ΔFnorm) over inhibitor concentration in the logarithmic scale.

[3] = molecular target: T3, VQIVYK (PHF6) APR from tau (Homo sapiens, UniProt P10636); assay: Th-T aggregation kinetics of VQIVYK with sub-stoichiometric variant peptides (1:5) or CAP1; format: biochemical; details: Fig. 8c
T3 construct: The VQIVYK (PHF6) stretch, located in the C-terminal repeat domain of tau; made in house; host or cells: chemical solid phase peptide synthesis (no expression host)
Source text: To experimentally investigate these calculations, we synthesised a library of 90 peptides corresponding to 78% of all single amino acid substitutions of the VQIVYK APR. We excluded introduction of cysteines to avoid further complexity introduced by the formation of intermolecular disulphides and also avoided substitutions of the Tyr residue at position five, since it enables fast and accurate readout of peptide concentration. First, peptide:APR mixtures were monitored using Th-T aggregation kinetic assays. For this screen, we used sub-stoichiometric mixtures of the variant peptides against PHF6 (1:5 analogy). The reasoning behind this was that it enabled tracing of subtle differences in aggregation kinetics, while at the same time reduced the propensity of most variants to participate in self-assembly. […] For the rest, following curve fitting of the monitored Th-T curves (Figs. 5a, b and S4), we calculated and summarised fold changes of aggregation half-times (t1/2) in a volcano plot, with the negative logarithm of the p-values represented on the vertical axis (Fig. 5c). […] It should be noted, however, that changes in fluorescence intensity can also potentially reflect morphological differentiation of the produced fibrils that can affect Th-T binding. […]

CC[C@H](C)[C@H](NC(=O)[C@H](CCC(N)=O)NC(=O)[C@H](Cc1c[nH]c2ccccc12)NC(=O)[C@H](CCCNC(=N)N)NC(=O)[C@H](CO)NC(=O)CNC(=O)[C@H](CCCNC(=N)N)NC(=O)[C@H](CCCCN)NC(=O)[C@H](Cc1ccc(O)cc1)NC(=O)[C@@H](NC(=O)[C@@H](NC(=O)[C@H](CCC(N)=O)NC(=O)[C@H](Cc1c[nH]c2ccccc12)NC(=O)[C@@H](N)CCCNC(=N)N)[C@@H](C)CC)C(C)C)C(=O)N[C@H](C(=O)N[C@@H](Cc1ccc(O)cc1)C(=O)N[C@@H](CCCCN)C(=O)N[C@@H](CCCNC(=N)N)C(=O)O)C(C)C [CAP1] (H-RWQIVYKRGSRWQIVYKR-OH; N-terminus and C-terminus assumed)
inhibition of heparin-induced aggregation of rTau [1]: successfully inhibited; also recorded: inhibits | seed propagation of AD patient brain extracts (fraction of cells containing tau inclusions) [2]: significantly reduces | binding to monomeric rTau (ATTO633-monomeric tau): no significant binding | inhibition of self-assembly of the PHF6 hexapeptide [3]: successfully inhibited; also recorded: inhibits
